# Target: T1, KCNQ2/3 ion channel (KCNQ2/3-expressing CHO-K1 cells) (Homo sapiens, UniProt O43525+O43526)
# T1 construct: expressed in transfected cells; host or cells: CHO-K1
# Assay: Fluorescence assay (FLIPR instrument, membrane potential dye) for substances acting agonistically on the KCNQ2/3 ion channel
# Type: cell-based
# Settings: difference between maximum and minimum values, agonistic action detected from a value of −40 (and below)
# Procedure: Pharmacological Test Methods I. Fluorescence Assay (FLIPR™ Instrument) for the Identification of Substances Acting Agonistically on the KCNQ2/3 Ion Channel
# On the day before the experiment, KCNQ2/3-expressing CHO-K1 cells and CHO-K1 empty strain cells were seeded out onto coated poly-D-lysine black/clear plates (Falcon/BD Company; Order No.: 356640) in a concentration of 20000 cells/100 μl MEM alpha, 50 ml FCS, 5.5 ml PIS/G/solution (100×) and then incubated for 20-24 hours in an incubator (37° C., 5% CO2). On the day of the experiment the HBSS/hepes working solution and the FMP/HBSS/hepes mixture (Membrane Potential Assay Kit Red (FMP), bulk format Cat. No. R8123) were initially prepared according to the following protocol:
# • 1000 ml 1× HBSS buffer (Hank's Balanced Salt Solution (1×) (Gibco; No. 14025)+10 ml hepes (1M stock solution, pH 7.4; hepes Na salt (Sigma Company; No. H7006-500 g; storage at 4° C. in a refrigerator) 2. 1× FMP/HBSS/hepes working solution: • 6 ml HBSS/hepes buffer are added to 5 ml of the FMP solution stored at −20° C. (preparation see below; thawing out at room temperature). The test substances (2 mM batch solution in 100% DMSO) contained in drug plates (Costar 96-well plates, catalogue No. 3795) were then diluted by adding HBSS/hepes buffer to a concentration of 30 μM (3× concentrated). The assay plates on which the cells grow were washed once with 200 μl HBSS/hepes (Cellwash Washer, Labsystems Company, catalogue No. 5161550) and the remaining volume was removed by tapping out the inverted plate twice. 100 μl of the FMP/HBSS/hepes working solution were then added in each case to the cell plates and incubated for 1 hour in the CO2 incubator at 37° C. and 5% CO2. The measurements are then carried out with a FLIPR III instrument from the Molecular Devices company (96-format, using the 540-590 nm band-pass filter in the #2 localization). In the experimental setup of the FLIPR software, filter #2 should be selected. The cell plates and the substance plates were fed alternately into the input stack. A signal test was carried out in each case with the cell plates before adding the substance. The test substances were then added via the pipetting unit of the FLIPR (added volume 50 μl, 3× concentrated, end concentration 10 μM) to the cavities of the cell plates in a total volume of 150 μl/well. The threshold data of the FLIPR program were as follows:
# The pipette tips were washed after each pipetting procedure 3 times with 1% DMSO in water. The times of the measurement intervals after addition of the test substances are as follows:
# Total measurement time: 6 min/plate
# The test samples were evaluated by calculating the difference between the maximum and minimum values. EC50/IC50 values are calculated using the Graph Pad Prism software.
# Preparation of the membrane potential loading buffer (membrane potential assay kit red (FMP), bulk format cat. No. R8123) according to the manufacturer's instructions:
# 10 ml of the 10× assay buffer (component B) were diluted with 90 ml of sterile water and then adjusted to pH 7.4 with 1.0N NaOH (1× assay buffer). One vessel with the FLIPR membrane potential assay component A was completely dissolved in 100 ml 1× assay buffer and thoroughly mixed for 10 minutes with a magnetic stirrer. 5 ml aliquots were then stored at −20° C. (storage shelf life ca. 2 weeks).
# An agonistic action can be detected starting from a value of −40 (and below).
row,SMILES,"FLIPR membrane potential fluorescence change (ΔF %, max minus min); negative values indicate KCNQ2/3 agonism [%]"
1,"COc1cccc2onc(NC(=S)NCc3ccc(Cl)cc3)c12 [Example 129, 1-(4-chlorobenzyl)-3-(4-methoxy-benzo[d)isoxazol-3-yl)-thiourea]",−42
2,"CC(NC(=S)Nc1noc2cccc(Cl)c12)c1ccccc1 (centres unmarked) [Example 53, 1-(4-chlorobenzo[d]isoxazol-3-yl)-3-(1-phenyl-ethyl)-thiourea]",−42.5
3,"CC(C)CNC(=S)Nc1noc2cccc(N(C)C)c12 [Example 54, 1-(4-dimethylamino-benzo[d]isoxazol-3-yl)-3-isobutyl-thiourea]",−64
4,"Cc1ccc(NC(=S)Nc2noc3cccc(N(C)C)c23)cc1 [Example 55, 1-(4-dimethylamino-benzo[d]-isoxazol-yl)-3-p-tolyl-thiourea]",−84
5,"COc1ccc(NC(=S)Nc2noc3cccc(OCC(F)(F)F)c23)cc1 [Example 84, 1-(4-methoxyphenyl)-3-[4-(2,2,2-trifluoroethoxy)-benzo[d]isoxazol-3-yl]-thiourea]",−40
6,"CN(C)c1ccc(NC(=S)Nc2noc3cccc(OCC(F)(F)F)c23)cc1 [Example 92, 1-(4-dimethylaminophenyl)-3-[4-(2.2,2-trifluoroethoxy)-benzo[d]isoxazol-3-yl]-thiourea]",−51
7,"Cc1ccc(NC(=S)Nc2noc3c(F)cccc23)cc1 [Example 124, 1-(7-fluorobenzo[d]isoxazol-3-yl)-3-p-tolyl-thiourea]",−50
8,"S=C(Nc1noc2ccccc12)NC1CCCCC1 [Example 23, 1-benzo[d]isoxazol-3-yl-3-cyclohexyl-thiourea]",−40
9,"CCOc1ccc(NC(=S)Nc2noc3ccccc23)cc1 [Example 31, 1-benzo[d]isoxazol-3-yl-3-(4-ethoxyphenyl)-thiourea]",−49
10,"CCc1ccccc1NC(=S)Nc1noc2ccc(Br)cc12 [Example 100, 1-(5-bromobenzo[d]isoxazol-3-yl)-3-(2-ethylphenyl)-thiourea]",−42
11,"COC(=O)C(C)NC(=S)Nc1noc2cccc(F)c12 (centres unmarked) [Example 50, 2-[3-(4-fluoro-benzo[d]isoxazol-3-yl)-thioureido]-propionic acid methyl ester]",−59.5
12,"COc1cc(NC(=S)Nc2noc3cccc(OCC(F)(F)F)c23)cc(OC)c1OC [Example 135, 1-[4-(2,2,2-trifluoroethoxy)-benzo[d]isoxazol-3-yl]-3-(3,4,5-trimethoxyphenyl)-thiourea]",−47.5
13,COc1cccc(NC(=S)Nc2noc3cc(Cl)ccc23)c1 [Example 107],−80
14,"S=C(Nc1noc2cc(Cl)ccc12)NC1CCCC1 [Example 103, 1-(6-chlorobenzo[d]isoxazol-3-yl)-3-cyclopentyl-thiourea]",−58
15,"S=C(NCc1ccccc1)Nc1noc2cccc(Cl)c12 [Example 52, 1-benzyl-3-(4-chloro-benzo[d]isoxazol-3-yl)-thiourea]",−67.5
16,"CN(C)c1cccc2onc(NC(=S)Nc3cccc(Cl)c3)c12 [Example 56, 1-(3-chlorophenyl)-3-(4-dimethylaminobenzo[d]isoxazol-3-yl)-thiourea]",−55
17,"Fc1ccc2onc(NC(=S)NCC3CCCO3)c2c1 (centres unmarked) [Example 98, 1-(5-fluorobenzo[d]isoxazol-3-yl)-3-(tetrahydrofuran-2-yl-methyl)-thiourea]",−43.5
18,"Cc1ccc2onc(NC(=S)Nc3ccc(C(F)(F)F)cc3)c2c1 [Example 96, 1-(5-methylbenzo[d]isoxazol-3-yl)-3-(4-trifluoromethylphenyl)-thiourea]",−57
19,"COCCCNC(=S)Nc1noc2cccc(N(C)C)c12 [Example 65, 1-(4-dimethylamino-benzo[d]isoxazol-3-yl)-3-(3-methoxypropyl)-thiourea]",−79
20,"CN(C)c1cccc2onc(NC(=S)NCc3ccccc3)c12 [Example 64, 1-benzyl-3-(4-dimethylamino-benzo[d]isoxazol-3-yl)-thiourea]",−52
21,"COc1cccc2onc(NC(=S)NC(C)c3ccccc3)c12 (centres unmarked) [Example 128, 1-(4-methoxybenzo[d]isoxazol-3-yl)-3-(1-phenylethyl)-thiourea]",−47

# More lines, now with the values ahead:
row,"FLIPR membrane potential fluorescence change (ΔF %, max minus min); negative values indicate KCNQ2/3 agonism [%]",SMILES
1,−47,"COC(=O)CNC(=S)Nc1noc2ccc(C)cc12 [Example 94, [3-(5-methylbenzo[d]isoxazol-3-yl)-thioureido]-acetic acid methyl ester]"
2,−68,"Fc1ccc2c(NCc3ccc(SC(F)(F)F)cc3)noc2c1 [Example 172, (6-fluorobenzo[d]isoxazol-3-yl)-(4-trifluoromethyl-sulfanyl-benzyl)-amine]"
3,−58.5,"COC(=O)C(C)NC(=S)Nc1noc2ccc(F)cc12 (centres unmarked) [Example 97, 2-[3-(5-fluorobenzo(d]isoxazol-3-yl)-thioureido]-propionic acid methyl ester]"
4,−49,"Fc1cccc2c(NCc3cccc(OC(F)(F)F)c3)noc12 [Example 203, (7-fluorobenzo[d]isoxazol-3-yl)-(3-trifluoromethoxy-benzyl)-amine]"
5,−64,"Cc1ccc2onc(NC(=S)Nc3ccccc3C(C)C)c2c1 [Example 95, 1-(2-isopropylphenyl)-3-(5-methyl-benzo[d]isoxazol-3-yl)-thiourea]"
6,−54,"CC(C)c1cccc(C(C)C)c1NC(=S)Nc1noc2cc(F)ccc12 [Example 114, 1-(2,6-diisopropylphenyl)-3-(6-fluorobenzo[d]isoxazol-3-yl)-thiourea]"
7,−63.25,"Cc1cc(C)cc(CNc2noc3cc(F)ccc23)c1 [Example 169, (3,5-dimethylbenzyl)-(6-fluorobenzo[d]isoxazol-3-yl)-amine]"
8,−74,"Fc1c(Cl)cccc1CNc1noc2cccc(Cl)c12 [Example 200, (4-chlorobenzo[d]isoxazol-3-yl)-(3-chloro-2-fluoro-benzyl)-amine]"
9,−45.5,"C=CCNC(=S)Nc1noc2ccc(C)cc12 [Example 93, 1-allyl-3-(5-methylbenzo[d]isoxazol-3-yl)-thiourea]"
10,−53,"FC(F)(F)Oc1ccc(CNc2noc3ccccc23)cc1 [Example 158, benzo[d]isoxazol-3-yl-(4-trifluoromethoxybenzyl)-amine]"
11,−56,"Cc1cc(C)cc(NC(=S)Nc2noc3cccc(N(C)C)c23)c1 [Example 63, 1-(4-dimethylamino-benzo[d]isoxazol-3-yl)-3-(3,5-dimethylphenyl)-thiourea]"

# — patent publication US7696238B2, “Substituted benzo[d]isoxazol-3-yl amine compounds as analgesics” (Gruenenthal GmbH, priority 2005, dated 2010)
